{
  "source": "patent US12667735B2",
  "about": "“Methods for reducing pain during photodynamic therapy of actinic keratosis” (Sun Pharmaceutical Industries, Inc., priority 2019, dated 2026)",
  "assay_type_in_all_cases": "in vivo, human",
  "key": {"[1]": {"experiment": "Daily home questionnaire of side effects, first 4 days after PDT", "settings": "for Crusting / Itching / Open sores / Peeling / Redness / Stinging / Swelling / Pain Score Mean (0-10 visual-analog scale) / Bleeding / Blisters / Burning: Side B (control PDT); for Pain Score Mean (0-10 visual-analog scale): average of 23 patients", "procedure": "(§1) Several secondary endpoints were also measured. For pain assessment, patients were asked every 5 to 10 min during illumination to report their pain on a 0 to 10 visual-analog (VAS) scale. Erythema was recorded photographically at Day 1 and on Day 4 post PDT. A side effect profile was recorded by each patient in a daily home questionnaire to document the presence or absence of eleven different signs and symptoms in the 4 days immediately following PDT (see Table 2)."}, "[2]": {"experiment": "Erythema after PDT, recorded photographically", "settings": "1-4 days after PDT; majority of patients", "procedure": "as §1"}, "[3]": {"experiment": "Pain during blue light illumination (0 to 10 VAS)", "settings": "for Pain score (0-to-10 VAS) during illumination / Pain score (0-to-10 VAS) during illumination, Mean: individual patients; for Pain score (0-to-10 VAS) during illumination, Mean: mean over time points; for Mean VAS pain score during illumination: all 23 patients, linear mixed-effect model, 0-10 scale", "procedure": "The term “Visual Analogue Scale for Pain (referred to as VAS pain score hereafter) as used herein, is defined as follows: An 11-point numerical pain scale wherein patients report a number (from 0 to 10) that most closely reflects the level of pain they are experiencing at that particular moment; 0 corresponds to no pain and 10 corresponds to the worst pain imaginable (Breivik, HaraldScandinavian Journal of Pain 2016; 11:150-152).\nas §1\nThe primary endpoint was AK lesion reduction. […] Statistical significance was considered with a p-value <0.05."}},
  "note": "“And” between values parts separate entries of the source, which are not always exact repeats. Identical values can stand only once.",
  "data": [
    {"molecule": "NCC(=O)CCC(=O)O", "note": "[ALA, 5-aminolevulinic acid]", "values": [
      {"measurement": "Crusting", "setting": "[1]; DAY 1", "result": "4 percentage of patients"},
      {"measurement": "Itching", "setting": "[1]; DAY 1", "result": "43, 43 percentage of patients"},
      {"measurement": "Open sores", "setting": "[1]; DAY 1", "result": "0, 0 percentage of patients"},
      {"measurement": "Peeling", "setting": "[1]; DAY 1", "result": "0 percentage of patients"},
      {"measurement": "Redness", "setting": "[1]; DAY 1", "result": "91, 91 percentage of patients"},
      {"measurement": "Stinging", "setting": "[1]; DAY 1", "result": "65, 65 percentage of patients"},
      {"measurement": "Swelling", "setting": "[1]; DAY 1", "result": "22 percentage of patients"},
      {"measurement": "Pain Score Mean (0-10 visual-analog scale)", "setting": "[1]; DAY 1", "result": 2.9},
      {"measurement": "Bleeding", "setting": "[1]; DAY 2", "result": "0 percentage of patients"},
      {"measurement": "Blisters", "setting": "[1]; DAY 2", "result": "9 percentage of patients"},
      {"measurement": "Burning", "setting": "[1]; DAY 2", "result": "52, 52 percentage of patients"},
      {"measurement": "Crusting", "setting": "[1]; DAY 2", "result": "17 percentage of patients"},
      {"measurement": "Itching", "setting": "[1]; DAY 2", "result": "74, 74 percentage of patients"},
      {"measurement": "Open sores", "setting": "[1]; DAY 2", "result": "9, 9 percentage of patients"},
      {"measurement": "Peeling", "setting": "[1]; DAY 2", "result": "9 percentage of patients"},
      {"measurement": "Redness", "setting": "[1]; DAY 2", "result": "100, 100 percentage of patients"},
      {"measurement": "Stinging", "setting": "[1]; DAY 2", "result": "70, 70 percentage of patients"},
      {"measurement": "Swelling", "setting": "[1]; DAY 2", "result": "26, 26 percentage of patients"},
      {"measurement": "Pain Score Mean (0-10 visual-analog scale)", "setting": "[1]; DAY 2", "result": 2.4},
      {"measurement": "Bleeding", "setting": "[1]; DAY 3", "result": "4 percentage of patients"},
      {"measurement": "Blisters", "setting": "[1]; DAY 3", "result": "13 percentage of patients"},
      {"measurement": "Burning", "setting": "[1]; DAY 3", "result": "35, 35 percentage of patients"},
      {"measurement": "Crusting", "setting": "[1]; DAY 3", "result": "26 percentage of patients"},
      {"measurement": "Itching", "setting": "[1]; DAY 3", "result": "65 percentage of patients"},
      {"measurement": "Open sores", "setting": "[1]; DAY 3", "result": "9, 9 percentage of patients"},
      {"measurement": "Peeling", "setting": "[1]; DAY 3", "result": "26 percentage of patients"},
      {"measurement": "Redness", "setting": "[1]; DAY 3", "result": "87 percentage of patients"},
      {"measurement": "Stinging", "setting": "[1]; DAY 3", "result": "39, 39 percentage of patients"},
      {"measurement": "Swelling", "setting": "[1]; DAY 3", "result": "13 percentage of patients"},
      {"measurement": "Pain Score Mean (0-10 visual-analog scale)", "setting": "[1]; DAY 3", "result": 1.5},
      {"measurement": "Bleeding", "setting": "[1]; DAY 4", "result": "13 percentage of patients"},
      {"measurement": "Blisters", "setting": "[1]; DAY 4", "result": "9 percentage of patients"},
      {"measurement": "Burning", "setting": "[1]; DAY 4", "result": "26, 26 percentage of patients"},
      {"measurement": "Crusting", "setting": "[1]; DAY 4", "result": "35, 35 percentage of patients"},
      {"measurement": "Itching", "setting": "[1]; DAY 4", "result": "65, 65 percentage of patients"},
      {"measurement": "Open sores", "setting": "[1]; DAY 4", "result": "4, 4 percentage of patients"},
      {"measurement": "Peeling", "setting": "[1]; DAY 4", "result": "52 percentage of patients"},
      {"measurement": "Redness", "setting": "[1]; DAY 4", "result": "74 percentage of patients"},
      {"measurement": "Stinging", "setting": "[1]; DAY 4", "result": "35, 35 percentage of patients"},
      {"measurement": "Swelling", "setting": "[1]; DAY 4", "result": "0, 0 percentage of patients"},
      {"measurement": "Pain Score Mean (0-10 visual-analog scale)", "setting": "[1]; DAY 4", "result": "1.0, 1.0"},
      {"measurement": "Major inflammatory parameters, Side A versus Side B", "setting": "[1]; first 4 days post-treatment", "result": "no noticeable differences"},
      {"measurement": "Spotty erythema (inflamed AK lesions), Side A versus Side B", "setting": "[2]", "result": "approximately equal on Side A and Side B"},
      {"measurement": "Pain score (0-to-10 VAS) during illumination", "setting": "[3]; SIDE A (test PDT), 10 min during illumination, 30 min test PDT cohort", "result": "0 (3×) and 2 and 3 and 1"},
      {"measurement": "Pain score (0-to-10 VAS) during illumination", "setting": "[3]; SIDE A (test PDT), 10 min during illumination, 45 min test PDT cohort", "result": "0 (5×) and 1 (3×)"},
      {"measurement": "Pain score (0-to-10 VAS) during illumination", "setting": "[3]; SIDE A (test PDT), 10 min during illumination, 60 min test PDT cohort", "result": 0},
      {"measurement": "Pain score (0-to-10 VAS) during illumination", "setting": "[3]; SIDE A (test PDT), 20 min during illumination, 30 min test PDT cohort", "result": "0 (2×) and 2 and 5 and 1 (2×)"},
      {"measurement": "Pain score (0-to-10 VAS) during illumination", "setting": "[3]; SIDE A (test PDT), 20 min during illumination, 45 min test PDT cohort", "result": "0 (6×) and 1 (2×)"},
      {"measurement": "Pain score (0-to-10 VAS) during illumination", "setting": "[3]; SIDE A (test PDT), 20 min during illumination, 60 min test PDT cohort", "result": 0},
      {"measurement": "Pain score (0-to-10 VAS) during illumination", "setting": "[3]; SIDE A (test PDT), 30 min during illumination, 30 min test PDT cohort", "result": "0 (2×) and 2 and 6 and 1 (2×)"},
      {"measurement": "Pain score (0-to-10 VAS) during illumination", "setting": "[3]; SIDE A (test PDT), 30 min during illumination, 45 min test PDT cohort", "result": "0 (7×) and 1"},
      {"measurement": "Pain score (0-to-10 VAS) during illumination", "setting": "[3]; SIDE A (test PDT), 30 min during illumination, 60 min test PDT cohort", "result": 0},
      {"measurement": "Pain score (0-to-10 VAS) during illumination", "setting": "[3]; SIDE A (test PDT), 40 min during illumination, 45 min test PDT cohort", "result": "0 (6×) and 1 (2×)"},
      {"measurement": "Pain score (0-to-10 VAS) during illumination", "setting": "[3]; SIDE A (test PDT), 40 min during illumination, 60 min test PDT cohort", "result": 0},
      {"measurement": "Pain score (0-to-10 VAS) during illumination", "setting": "[3]; SIDE A (test PDT), 50 min during illumination", "result": 0},
      {"measurement": "Pain score (0-to-10 VAS) during illumination, Mean", "setting": "[3]; SIDE A (test PDT), 30 min test PDT cohort", "result": "0.0 (3×) and 2.0 and 4.7 and 0.7 and 1.0"},
      {"measurement": "Pain score (0-to-10 VAS) during illumination, Mean", "setting": "[3]; SIDE A (test PDT), 45 min test PDT cohort", "result": "0.0 (4×) and 0.3 (2×) and 1.0 and 0.5"},
      {"measurement": "Pain score (0-to-10 VAS) during illumination, Mean", "setting": "[3]; SIDE A (test PDT), 60 min test PDT cohort", "result": "0.0 (5×) and 0.8 (2×) and 0.2"},
      {"measurement": "Pain score (0-to-10 VAS) during illumination", "setting": "[3]; SIDE B (control PDT), 5 min during illumination, 30 min test PDT cohort", "result": "2 and 10 (2×) and 4 and 5 and 3"},
      {"measurement": "Pain score (0-to-10 VAS) during illumination", "setting": "[3]; SIDE B (control PDT), 5 min during illumination, 45 min test PDT cohort", "result": "8 and 4 (3×) and 3 and 2 and 5 and 1"},
      {"measurement": "Pain score (0-to-10 VAS) during illumination", "setting": "[3]; SIDE B (control PDT), 5 min during illumination, 60 min test PDT cohort", "result": 1},
      {"measurement": "Pain score (0-to-10 VAS) during illumination", "setting": "[3]; SIDE B (control PDT), 10 min during illumination, 30 min test PDT cohort", "result": "1 and 7 and 5 and 4 and 3 (2×)"},
      {"measurement": "Pain score (0-to-10 VAS) during illumination", "setting": "[3]; SIDE B (control PDT), 10 min during illumination, 45 min test PDT cohort", "result": "3 (3×) and 2 and 4 and 5 (2×) and 1"},
      {"measurement": "Pain score (0-to-10 VAS) during illumination", "setting": "[3]; SIDE B (control PDT), 10 min during illumination, 60 min test PDT cohort", "result": 1},
      {"measurement": "Pain score (0-to-10 VAS) during illumination", "setting": "[3]; SIDE B (control PDT), 15 min during illumination, 30 min test PDT cohort", "result": "0 and 5 and 6 and 4 and 1 and 3"},
      {"measurement": "Pain score (0-to-10 VAS) during illumination", "setting": "[3]; SIDE B (control PDT), 15 min during illumination, 45 min test PDT cohort", "result": "0 and 2 (3×) and 1 and 3 and 4 and 5"},
      {"measurement": "Pain score (0-to-10 VAS) during illumination", "setting": "[3]; SIDE B (control PDT), 15 min during illumination, 60 min test PDT cohort", "result": 0},
      {"measurement": "Pain score (0-to-10 VAS) during illumination, Mean", "setting": "[3]; SIDE B (control PDT), 30 min test PDT cohort", "result": "1.0 and 7.3 and 7.0 and 4.0 and 3.0 (2×) and 4.7"},
      {"measurement": "Pain score (0-to-10 VAS) during illumination, Mean", "setting": "[3]; SIDE B (control PDT), 45 min test PDT cohort", "result": "3.7 (2×) and 3.0 and 2.7 and 1.7 and 4.3 and 5.0 and 1.3"},
      {"measurement": "Pain score (0-to-10 VAS) during illumination, Mean", "setting": "[3]; SIDE B (control PDT), 60 min test PDT cohort", "result": "0.7 and 6.3 and 4.3 and 1.0 and 3.7 (2×) and 6.7 and 0.3"},
      {"measurement": "Mean VAS pain score during illumination", "setting": "[3]; Side A (test PDT)", "result": 0.52},
      {"measurement": "Mean VAS pain score during illumination", "setting": "[3]; Side B (control PDT)", "result": 3.57},
      {"measurement": "Pain during illumination, test PDT side versus control side", "setting": "[3]; substantially no pre-illumination gap versus 1 hour gap", "result": "drastically reduced"}
    ]}
  ]
}
